Source: patent publication US12618095B2, “Medium for Bacillus cereus group detection” (SHIMADZU DIAGNOSTICS CORPORATION, priority 2020, dated 2026)

Experiments:
[1] = test system: B. thuringiensis; test: Test Example 9: concentration of amphotericin B; format: cell-based; conditions: NBRC101235
[2] = test system: B. cereus; test: Test Example 9: concentration of amphotericin B

C[C@@H]1[C@H](O)[C@@H](C)/C=C/C=C/C=C/C=C/C=C/C=C/C=C/[C@H](O[C@@H]2O[C@H](C)[C@@H](O)[C@H](N)[C@@H]2O)C[C@@H]2O[C@](O)(C[C@@H](O)C[C@@H](O)[C@H](O)CC[C@@H](O)C[C@@H](O)CC(=O)O[C@H]1C)C[C@H](O)[C@H]2C(=O)O [Amphotericin B]
Number of colonies ([1]; Amphotericin B 0.1 mg, 24 hours, 10^2 cfu/mL): 28 | Number of colonies ([1]; Amphotericin B 0.1 mg, 24 hours, 10^3 cfu/mL): + | Number of colonies ([1]; Amphotericin B 0.1 mg, 24 hours, 10^4 cfu/mL): + | Number of colonies ([1]; Amphotericin B 0.1 mg, 24 hours, 10^5 cfu/mL): + | Number of colonies ([1]; Amphotericin B 0.1 mg, 44 hours, 10^2 cfu/mL): 28 | Number of colonies ([1]; Amphotericin B 0.1 mg, 44 hours, 10^3 cfu/mL): + | Number of colonies ([1]; Amphotericin B 0.1 mg, 44 hours, 10^4 cfu/mL): + | Number of colonies ([1]; Amphotericin B 0.1 mg, 44 hours, 10^5 cfu/mL): + | Number of colonies ([1]; Amphotericin B 1.0 mg, 24 hours, 10^2 cfu/mL): 39 | Number of colonies ([1]; Amphotericin B 1.0 mg, 24 hours, 10^3 cfu/mL): + | Number of colonies ([1]; Amphotericin B 1.0 mg, 24 hours, 10^4 cfu/mL): + | Number of colonies ([1]; Amphotericin B 1.0 mg, 24 hours, 10^5 cfu/mL): + | Number of colonies ([1]; Amphotericin B 1.0 mg, 44 hours, 10^2 cfu/mL): 39 | Number of colonies ([1]; Amphotericin B 1.0 mg, 44 hours, 10^3 cfu/mL): + | Number of colonies ([1]; Amphotericin B 1.0 mg, 44 hours, 10^4 cfu/mL): + | Number of colonies ([1]; Amphotericin B 1.0 mg, 44 hours, 10^5 cfu/mL): + | Number of colonies ([1]; Amphotericin B 10 mg, 24 hours, 10^2 cfu/mL): 38 | Number of colonies ([1]; Amphotericin B 10 mg, 24 hours, 10^3 cfu/mL): + | Number of colonies ([1]; Amphotericin B 10 mg, 24 hours, 10^4 cfu/mL): + | Number of colonies ([1]; Amphotericin B 10 mg, 24 hours, 10^5 cfu/mL): + | Number of colonies ([1]; Amphotericin B 10 mg, 44 hours, 10^2 cfu/mL): 38 | Number of colonies ([1]; Amphotericin B 10 mg, 44 hours, 10^3 cfu/mL): + | Number of colonies ([1]; Amphotericin B 10 mg, 44 hours, 10^4 cfu/mL): + | Number of colonies ([1]; Amphotericin B 10 mg, 44 hours, 10^5 cfu/mL): + | Number of colonies ([2]; ATCC11778, Amphotericin B 0.1 mg, 24 hours, 10^2 cfu/mL): 37 | Number of colonies ([2]; ATCC11778, Amphotericin B 0.1 mg, 24 hours, 10^3 cfu/mL): + | Number of colonies ([2]; ATCC11778, Amphotericin B 0.1 mg, 24 hours, 10^4 cfu/mL): + | Number of colonies ([2]; ATCC11778, Amphotericin B 0.1 mg, 24 hours, 10^5 cfu/mL): + | Number of colonies ([2]; ATCC11778, Amphotericin B 0.1 mg, 44 hours, 10^2 cfu/mL): 37 | Number of colonies ([2]; ATCC11778, Amphotericin B 0.1 mg, 44 hours, 10^3 cfu/mL): + | Number of colonies ([2]; ATCC11778, Amphotericin B 0.1 mg, 44 hours, 10^4 cfu/mL): + | Number of colonies ([2]; ATCC11778, Amphotericin B 0.1 mg, 44 hours, 10^5 cfu/mL): + | Number of colonies ([2]; ATCC11778, Amphotericin B 1.0 mg, 24 hours, 10^2 cfu/mL): 51 | Number of colonies ([2]; ATCC11778, Amphotericin B 1.0 mg, 24 hours, 10^3 cfu/mL): + | Number of colonies ([2]; ATCC11778, Amphotericin B 1.0 mg, 24 hours, 10^4 cfu/mL): + | Number of colonies ([2]; ATCC11778, Amphotericin B 1.0 mg, 24 hours, 10^5 cfu/mL): + | Number of colonies ([2]; ATCC11778, Amphotericin B 1.0 mg, 44 hours, 10^2 cfu/mL): 51 | Number of colonies ([2]; ATCC11778, Amphotericin B 1.0 mg, 44 hours, 10^3 cfu/mL): + | Number of colonies ([2]; ATCC11778, Amphotericin B 1.0 mg, 44 hours, 10^4 cfu/mL): + | Number of colonies ([2]; ATCC11778, Amphotericin B 1.0 mg, 44 hours, 10^5 cfu/mL): + | Number of colonies ([2]; ATCC11778, Amphotericin B 10 mg, 24 hours, 10^2 cfu/mL): 49 | Number of colonies ([2]; ATCC11778, Amphotericin B 10 mg, 24 hours, 10^3 cfu/mL): + | Number of colonies ([2]; ATCC11778, Amphotericin B 10 mg, 24 hours, 10^4 cfu/mL): + | Number of colonies ([2]; ATCC11778, Amphotericin B 10 mg, 24 hours, 10^5 cfu/mL): + | Number of colonies ([2]; ATCC11778, Amphotericin B 10 mg, 44 hours, 10^2 cfu/mL): 49 | Number of colonies ([2]; ATCC11778, Amphotericin B 10 mg, 44 hours, 10^3 cfu/mL): + | Number of colonies ([2]; ATCC11778, Amphotericin B 10 mg, 44 hours, 10^4 cfu/mL): + | Number of colonies ([2]; ATCC11778, Amphotericin B 10 mg, 44 hours, 10^5 cfu/mL): + | Number of colonies ([2]; ATCC19637, Amphotericin B 0.1 mg, 24 hours, 10^2 cfu/mL): 36 | Number of colonies ([2]; ATCC19637, Amphotericin B 0.1 mg, 24 hours, 10^3 cfu/mL): + | Number of colonies ([2]; ATCC19637, Amphotericin B 0.1 mg, 24 hours, 10^4 cfu/mL): + | Number of colonies ([2]; ATCC19637, Amphotericin B 0.1 mg, 24 hours, 10^5 cfu/mL): + | Number of colonies ([2]; ATCC19637, Amphotericin B 0.1 mg, 44 hours, 10^2 cfu/mL): 36 | Number of colonies ([2]; ATCC19637, Amphotericin B 0.1 mg, 44 hours, 10^3 cfu/mL): + | Number of colonies ([2]; ATCC19637, Amphotericin B 0.1 mg, 44 hours, 10^4 cfu/mL): + | Number of colonies ([2]; ATCC19637, Amphotericin B 0.1 mg, 44 hours, 10^5 cfu/mL): + | Number of colonies ([2]; ATCC19637, Amphotericin B 1.0 mg, 24 hours, 10^2 cfu/mL): 35 | Number of colonies ([2]; ATCC19637, Amphotericin B 1.0 mg, 24 hours, 10^3 cfu/mL): + | Number of colonies ([2]; ATCC19637, Amphotericin B 1.0 mg, 24 hours, 10^4 cfu/mL): + | Number of colonies ([2]; ATCC19637, Amphotericin B 1.0 mg, 24 hours, 10^5 cfu/mL): + | Number of colonies ([2]; ATCC19637, Amphotericin B 1.0 mg, 44 hours, 10^2 cfu/mL): 35 | Number of colonies ([2]; ATCC19637, Amphotericin B 1.0 mg, 44 hours, 10^3 cfu/mL): + | Number of colonies ([2]; ATCC19637, Amphotericin B 1.0 mg, 44 hours, 10^4 cfu/mL): + | Number of colonies ([2]; ATCC19637, Amphotericin B 1.0 mg, 44 hours, 10^5 cfu/mL): + | Number of colonies ([2]; ATCC19637, Amphotericin B 10 mg, 24 hours, 10^2 cfu/mL): 39 | Number of colonies ([2]; ATCC19637, Amphotericin B 10 mg, 24 hours, 10^3 cfu/mL): + | Number of colonies ([2]; ATCC19637, Amphotericin B 10 mg, 24 hours, 10^4 cfu/mL): + | Number of colonies ([2]; ATCC19637, Amphotericin B 10 mg, 24 hours, 10^5 cfu/mL): + | Number of colonies ([2]; ATCC19637, Amphotericin B 10 mg, 44 hours, 10^2 cfu/mL): 39 | Number of colonies ([2]; ATCC19637, Amphotericin B 10 mg, 44 hours, 10^3 cfu/mL): + | Number of colonies ([2]; ATCC19637, Amphotericin B 10 mg, 44 hours, 10^4 cfu/mL): + | Number of colonies ([2]; ATCC19637, Amphotericin B 10 mg, 44 hours, 10^5 cfu/mL): +
